According to patent US20120284809A1, “KNOCK DOWN MODEL OF DICKKOPF HOMOLOGUE 3 (Dkk3) FOR ASSESSING ROLE OF SAID Dkk3 IN SPERMATOGENESIS AND SEX REVERSAL” (National Institute of Immunology, priority 2011, published 2012):

Tested on: spermatogenesis in Dkk3 knock down model
Test: Testosterone replacement in Dkk3 knock down model
Format: in vivo, non human vertebrate
Details: 5 mg intramuscularly
Description: Serum testosterone concentrations from the Dkk3 knock down model and wild-type can be assessed at 10 weeks of age. Blood can be obtained through retro orbital bleeding before sacrificing the model. Serum testosterone can be assayed using a modified testosterone immunoassay (RIA) system in triplicate. […] For testosterone replacement, Dkk3 knock down model can be injected intramuscularly with 5 mg of testosterone undecanoate. Controls may be injected with castor oil. Blood can be taken after one month of the injection and serum testosterone levels may be measured.

## CCCCCCCCCCC(=O)O[C@H]1CC[C@H]2[C@@H]3CCC4=CC(=O)CC[C@]4(C)[C@H]3CC[C@]12C [testosterone undecanoate]
Not up to wild type control levels
  Sperm counts vs Dkk3 knock down model: marginal increase
One month
  degree of spermatogenesis tubule disruption (histology) vs castor oil treated controls: did not showed any improvement
